Assay [1] concerns Staphylococcus aureus. Put plainly: Antibacterial activity against Staphylococcus aureus assessed as diameter of inhibition zone at 3 mg/ml. To be noted: read-out: DIZ. The format is functional.
Assay [2] concerns Pseudomonas aeruginosa. The assay is described as follows: Antibacterial activity against Pseudomonas aeruginosa assessed as diameter of inhibition zone at 3 mg/ml. The format is functional. The conditions noted are these: read-out: DIZ.
Assay [3] relates to Staphylococcus aureus. The assay is described as follows: Antibacterial activity against Staphylococcus aureus assessed as diameter of inhibition zone at 1 mg/ml. The conditions noted are these: read-out: DIZ. Format: functional.
For assay [4], the system named is Salmonella typhi. Put plainly: Antibacterial activity against Salmonella typhi assessed as diameter of inhibition zone at 20 mg/ml. The format is functional, Salmonella enterica subsp. enterica serovar Typhi. The conditions noted are these: Salmonella enterica; read-out: DIZ.
Assay [5] deals with Pseudomonas aeruginosa. The assay is described as follows: Antibacterial activity against Pseudomonas aeruginosa assessed as diameter of inhibition zone at 20 mg/ml. Format: functional. The conditions noted are these: read-out: DIZ.
Assay [6] concerns Klebsiella pneumoniae. Put plainly: Antibacterial activity against Klebsiella pneumoniae assessed as diameter of inhibition zone at 20 mg/ml. The conditions noted are these: read-out: DIZ. Format: functional.
Assay [7] deals with Escherichia coli. Put plainly: Antibacterial activity against Escherichia coli assessed as diameter of inhibition zone at 1 mg/ml. To be noted: read-out: DIZ. Format: functional.
Assay [8] deals with Staphylococcus aureus. The assay is described as follows: Antibacterial activity against Staphylococcus aureus assessed as diameter of inhibition zone at 20 mg/ml. The format is functional. To be noted: read-out: DIZ.
Assay [9] deals with Helicobacter pylori. The assay is described as follows: Antibacterial activity against Helicobacter pylori assessed as diameter of inhibition zone at 1 mg/ml. The format is functional. To be noted: read-out: DIZ.
Assay [10] concerns Escherichia coli. The assay is described as follows: Antibacterial activity against Escherichia coli assessed as diameter of inhibition zone at 20 mg/ml. The format is functional. The conditions noted are these: read-out: DIZ.

As to `O[C@H]1C=C2[C@H]3CN(Cc4cc5c(cc43)OCO5)[C@H]2C[C@@H]1O`, the zone of inhibition at 3000 µg/mL in assay [1] came out at 22 mm; in [2] it was 16 mm.

On to `CC[C@H](CC[C@@H](C)[C@H]1CC[C@H]2[C@@H]3CC=C4C[C@@H](O[C@@H]5O[C@H](CO)[C@@H](O)[C@H](O)[C@H]5O)CC[C@]4(C)[C@H]3CC[C@]12C)C(C)C` [SITOGLUSIDE], for which the zone of inhibition at 1000 µg/mL is 9 mm in assay [3], 14 mm in assay [7] and 9 mm in [9]. Also, the zone of inhibition at 20000 µg/mL in assay [4] came to 8 mm; in assay [5], 7 mm; in assay [6], 8 mm; in [8], 7 mm; in assay [10] it was 9 mm.
